This assay has as its system rabbits. The assay can be described thus: Effect on pupil diameter in rabbit animal model (change from baseline). The assay is classed as in vivo. Conditions: for reduction from baseline pupil diameter: dose of 1.25% w/w. The method, then:
Dose solutions with concentration range of 0.25% to 4% pilocarpine were prepared and dosed in rabbits. The effect on pupil diameter was measured and recorded as the change from baseline.
Dose solutions with concentration range of 0.03% to 3% carbachol were prepared and dosed in rabbits. The effect on pupil diameter was measured and recorded as the change from baseline. […] The expected efficacious range of carbachol resulting in the aforementioned pupil size reduction would correspond to approximately 0.1 to 1% w/w carbachol (FIG. 2).

Structures are written as SMILES.

This is an account of results in patent US20220273605A1, “COMPOSITIONS AND METHODS FOR TREATMENT OF PRESBYOPIA” (priority 2019, published 2022).

In the case of `CC[C@@H]1C(=O)OC[C@@H]1Cc1cncn1C` [pilocarpine], the “reduction from baseline pupil diameter” value reads like this: (over 0.5 to 2 hours) 20-30%; (up to 3 hours) “approximately 10%”. In the case of `C[N+](C)(C)CCOC(N)=O.[Cl-]` [carbachol, carbamoylcholine chloride], the “dose that most closely matches the optimum dose response measured for pilocarpine” value (20-30% pupil diameter reduction over 0.5 to 2 hours, about 10% up to 3 hours, tested 0.03% to 3%) is “approximately 0.6 % w/w”.
